Measurements: patent US9302999B2, “Substituted triazoles as herbicides” (E. I. DU PONT DE NEMOURS AND COMPANY, priority 2012, dated 2016)

Columns and labels:
Type in all cases: in vivo
[1] = system: wheat (TRZAW, Triticum aestivum); assay: Test H post-emergence, alone and in combination: wheat
From the text: (§1) Seeds of plant species selected from wheat (TRZAW, Triticum aestivum), barley (HORBW, Hordeum vulgare), Kochia (KCHSC, Kochia caoparia) blackgrass (ALOMY, Alopecurus myosuroides), canarygrass (PHAMI, Phalaris minor), Italian ryegrass (LOLMU, Lolium multiflorum) common lambsquarter (CHEAL, Chenopodium album), pigweed (AMARE, Amaranthus retroflexus), Common Chickweed (STEME, Stellaria media), Russian thistle (SASKR, Salsola iberica), Wild Buckwheat (POLCO, Polygonum convolvulus), Catchweed Bedstraw (GALAP, Galium aparine), Mustard (SINAR, Sinapisar arvensis), Henbit Deadnettle (LAMAM, Lamium amplexicaule), Wild Radish (RAPRA, Raphanus raphanistrum), Field Poppy (PAPRH, Papaver rhoeas), Field Violet (VIOAR, Viola arvennsis), Scentless Chamomile (MATIN Matricaria inodora) were planted into soil and treated post-emergence with test chemicals formulated in a non-phytotoxic solvent mixture. Plants were grown in a greenhouse using supplemental lighting to maintain a photoperiod of approximately 14 hours; daytime and nighttime temperatures were approximately 23°-29° and 16°-19° Celsius, respectively. Balanced fertilizer was applied through the watering system. Treated plants and controls were maintained in a greenhouse for 20 days, after which time all species were compared to controls and visually evaluated. Plant response ratings were calculated as the mean of three replicates (unless otherwise indicated), are summarized in Table G, and are based on a scale of 0 to 100 where 0 is no effect and 100 is complete control. A dash (-) response means no test result.

[2] = system: barley (HORBW, Hordeum vulgare); assay: Test H post-emergence, alone and in combination: barley
From the text: as §1

[3] = system: Kochia (KCHSC, Kochia caoparia); assay: Test H post-emergence, alone and in combination: Kochia
From the text: as §1

[4] = system: blackgrass (ALOMY, Alopecurus myosuroides); assay: Test H post-emergence, alone and in combination: blackgrass
From the text: as §1

[5] = system: canarygrass (PHAMI, Phalaris minor); assay: Test H post-emergence, alone and in combination: canarygrass
From the text: as §1

[6] = system: Italian ryegrass (LOLMU, Lolium multiflorum); assay: Test H post-emergence, alone and in combination: Italian ryegrass
From the text: as §1

[7] = system: common lambsquarter (CHEAL, Chenopodium album); assay: Test H post-emergence, alone and in combination: common lambsquarter
From the text: as §1

[8] = system: pigweed (AMARE, Amaranthus retroflexus); assay: Test H post-emergence, alone and in combination: pigweed
From the text: as §1

[9] = system: Common Chickweed (STEME, Stellaria media); assay: Test H post-emergence, alone and in combination: Common Chickweed
From the text: as §1

[10] = system: Russian thistle (SASKR, Salsola iberica); assay: Test H post-emergence, alone and in combination: Russian thistle
From the text: as §1

[11] = system: Wild Buckwheat (POLCO, Polygonum convolvulus); assay: Test H post-emergence, alone and in combination: Wild Buckwheat
From the text: as §1

[12] = system: Catchweed Bedstraw (GALAP, Galium aparine); assay: Test H post-emergence, alone and in combination: Catchweed Bedstraw
From the text: as §1

[13] = system: Mustard (SINAR, Sinapisar arvensis); assay: Test H post-emergence, alone and in combination: Mustard
From the text: as §1

[14] = system: Henbit Deadnettle (LAMAM, Lamium amplexicaule); assay: Test H post-emergence, alone and in combination: Henbit Deadnettle
From the text: as §1

[15] = system: Wild Radish (RAPRA, Raphanus raphanistrum); assay: Test H post-emergence, alone and in combination: Wild Radish
From the text: as §1

[16] = system: Field Poppy (PAPRH, Papaver rhoeas); assay: Test H post-emergence, alone and in combination: Field Poppy
From the text: as §1

[17] = system: Field Violet (VIOAR, Viola arvennsis); assay: Test H post-emergence, alone and in combination: Field Violet
From the text: as §1

[18] = system: Scentless Chamomile (MATIN Matricaria inodora); assay: Test H post-emergence, alone and in combination: Scentless Chamomile
From the text: as §1

[19] = system: barnyardgrass (Echinochloa crus-galli); assay: Test A pre-/postemergence: barnyardgrass; conditions: for Barnyardgrass plant response rating: Postemergence; for Plant response rating, Barnyardgrass: Preemergence
Outline: (§2)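 Whole-plant greenhouse assay in loam/sand. Preemergence directed soil spray plus simultaneous postemergence spray (one- to two-leaf stage, 2–10 cm). Rated visually ~10 days later, 0 = no effect, 100 = complete control.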

[20] = system: crabgrass, large (large crabgrass, Digitaria sanguinalis); assay: Test A pre-/postemergence: crabgrass, large; conditions: for Crabgrass, Large plant response rating: Postemergence; for Plant response rating, Crabgrass, Large: Preemergence
Outline: as §2

[21] = system: foxtail, giant (giant foxtail, Setaria faberii); assay: Test A pre-/postemergence: foxtail, giant; conditions: for Foxtail, Giant plant response rating: Postemergence; for Plant response rating, Foxtail, Giant: Preemergence
Outline: as §2

[22] = system: morningglory (Ipomoea spp.); assay: Test A pre-/postemergence: morningglory; conditions: for Morningglory plant response rating: Postemergence; for Plant response rating, Morningglory: Preemergence
Outline: as §2

[23] = system: pigweed (Amaranthus retroflexus); assay: Test A pre-/postemergence: pigweed; conditions: for Pigweed plant response rating: Postemergence; for Plant response rating, Pigweed: Preemergence
Outline: as §2

[24] = system: velvetleaf (Abutilon theophrasti); assay: Test A pre-/postemergence: velvetleaf; conditions: for Velvetleaf plant response rating: Postemergence; for Plant response rating, Velvetleaf: Preemergence
Outline: as §2

[25] = system: wheat (Triticum aestivum); assay: Test A pre-/postemergence: wheat; conditions: for Wheat plant response rating: Postemergence; for Plant response rating, Wheat: Preemergence
Outline: as §2

[26] = system: corn (Zea mays); assay: Test A pre-/postemergence: corn; conditions: for Corn plant response rating: Postemergence; for Plant response rating, Corn: Preemergence
Outline: as §2

[27] = system: rice (Oryza sativa); assay: Test B flooded paddy: rice; conditions: Flood; 250 g ai/ha; applied to paddy water at 2-leaf stage; visually evaluated after 13 to 15 days
Outline: (§3)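 Greenhouse assay lasting 13 to 15 days. Treatment was into water flooding pots 3 cm deep, at the 2-leaf stage, with that level sustained afterwards. Scores compare treated with control plants visually, 100 denoting complete control and 0 no effect; a dash marks no test result.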

[28] = system: sedge, umbrella (small-flower umbrella sedge Cyperus difformis); assay: Test B flooded paddy: sedge, umbrella; conditions: Flood; 250 g ai/ha; applied to paddy water at 2-leaf stage; visually evaluated after 13 to 15 days
Outline: as §3

[29] = system: ducksalad (Heteranthera limosa); assay: Test B flooded paddy: ducksalad; conditions: Flood; 250 g ai/ha; applied to paddy water at 2-leaf stage; visually evaluated after 13 to 15 days
Outline: as §3

[30] = system: barnyardgrass (Echinochloa crus-galli); assay: Test B flooded paddy: barnyardgrass; conditions: Flood; 250 g ai/ha; applied to paddy water at 2-leaf stage; visually evaluated after 13 to 15 days
Outline: as §3

[31] = 125 g ai/ha, 0 to 100 scale, 0 is no effect, 100 is complete control
[32] = 500 g ai/ha, visual rating on 0 to 100 scale (0 no effect, 100 complete control), approximately ten days
[33] = 125 g ai/ha, 0 to 100 scale (0 no effect, 100 complete control)
[34] = 500 g ai/ha, 0 to 100 scale, 0 is no effect, 100 is complete control

## COC(=O)c1ccc(C(F)(F)F)nc1S(=O)(=O)NC(=O)Nc1nc(OC)cc(OC)n1 [b2b, flupyrsulfuron-methyl]
[1]; Rate 8
  TRZAW plant response: 0
[1]; Rate 16
  TRZAW plant response: 5
[1]; Rate 31
  TRZAW plant response: 5
[1]; Rate 62
  TRZAW plant response: 25
[2]; Rate 8
  HORBW plant response: 20
[2]; Rate 16
  HORBW plant response: 30
[2]; Rate 31
  HORBW plant response: 60
[2]; Rate 62
  HORBW plant response: 70
[3]; Rate 8
  KCHSC plant response: 75
[3]; Rate 16
  KCHSC plant response: 100
[3]; Rate 31
  KCHSC plant response: 80
[3]; Rate 62
  KCHSC plant response: 95
[4]; Rate 8
  ALOMY plant response: 100
[4]; Rate 16
  ALOMY plant response: 100
[4]; Rate 31
  ALOMY plant response: 100
[4]; Rate 62
  ALOMY plant response: 100
[5]; Rate 8
  PHAMI plant response: 40
[5]; Rate 16
  PHAMI plant response: 55
[5]; Rate 31
  PHAMI plant response: 85
[5]; Rate 62
  PHAMI plant response: 90
[6]; Rate 8
  LOLMU plant response: 60
[6]; Rate 16
  LOLMU plant response: 60
[6]; Rate 31
  LOLMU plant response: 65
[6]; Rate 62
  LOLMU plant response: 80
[7]; Rate 8
  CHEAL plant response: 60
[7]; Rate 16
  CHEAL plant response: 85
[7]; Rate 31
  CHEAL plant response: 75
[7]; Rate 62
  CHEAL plant response: 80
[8]; Rate 8
  AMARI plant response: 100
[8]; Rate 16
  AMARI plant response: 100
[8]; Rate 31
  AMARI plant response: 100
[8]; Rate 62
  AMARI plant response: 100
[9]; Rate 8
  STEME plant response: 90
[9]; Rate 16
  STEME plant response: 100
[9]; Rate 31
  STEME plant response: 100
[9]; Rate 62
  STEME plant response: 100
[10]; Rate 8
  SASKR plant response: 50
[10]; Rate 16
  SASKR plant response: 50
[10]; Rate 31
  SASKR plant response: 50
[10]; Rate 62
  SASKR plant response: 60
[11]; Rate 8
  POLCO plant response: 100
[11]; Rate 16
  POLCO plant response: 85
[11]; Rate 31
  POLCO plant response: 100
[11]; Rate 62
  POLCO plant response: 100
[12]; Rate 8
  GALAP plant response: 90
[12]; Rate 16
  GALAP plant response: 95
[12]; Rate 31
  GALAP plant response: 90
[12]; Rate 62
  GALAP plant response: 100
[13]; Rate 8
  SINAR plant response: 100
[13]; Rate 16
  SINAR plant response: 95
[13]; Rate 31
  SINAR plant response: 100
[13]; Rate 62
  SINAR plant response: 100
[14]; Rate 8
  LAMAM plant response: 90
[14]; Rate 16
  LAMAM plant response: 95
[14]; Rate 31
  LAMAM plant response: 95
[14]; Rate 62
  LAMAM plant response: 90
[15]; Rate 8
  RAPRA plant response: 100
[15]; Rate 16
  RAPRA plant response: 100
[15]; Rate 31
  RAPRA plant response: 100
[15]; Rate 62
  RAPRA plant response: 100
[16]; Rate 8
  PAPRH plant response: 100
[16]; Rate 16
  PAPRH plant response: 90
[16]; Rate 31
  PAPRH plant response: 100
[16]; Rate 62
  PAPRH plant response: 95
[17]; Rate 8
  VIOAR plant response: 50
[17]; Rate 16
  VIOAR plant response: 75
[17]; Rate 31
  VIOAR plant response: 70
[17]; Rate 62
  VIOAR plant response: 95
[18]; Rate 8
  MATIN plant response: 90
[18]; Rate 16
  MATIN plant response: 95
[18]; Rate 31
  MATIN plant response: 100
[18]; Rate 62
  MATIN plant response: 95

## COc1nn(-c2ccc(F)cc2)nc1C(=O)c1ccnc(C(F)(F)F)c1 [Compound 24]
[19]; [31]
  Barnyardgrass plant response rating: 0
[19]; [32]
  Barnyardgrass plant response rating: 20
[19]; [33]
  Plant response rating, Barnyardgrass: 0
[19]; [34]
  Plant response rating, Barnyardgrass: 0
[20]; [31]
  Crabgrass, Large plant response rating: 10
[20]; [32]
  Crabgrass, Large plant response rating: 20
[20]; [33]
  Plant response rating, Crabgrass, Large: 0
[20]; [34]
  Plant response rating, Crabgrass, Large: 20
[21]; [31]
  Foxtail, Giant plant response rating: 10
[21]; [32]
  Foxtail, Giant plant response rating: 20
[21]; [33]
  Plant response rating, Foxtail, Giant: 20
[21]; [34]
  Plant response rating, Foxtail, Giant: 70
[22]; [31]
  Morningglory plant response rating: 20
[22]; [32]
  Morningglory plant response rating: 20
[22]; [33]
  Plant response rating, Morningglory: 0
[22]; [34]
  Plant response rating, Morningglory: 0
[23]; [31]
  Pigweed plant response rating: 40
[23]; [32]
  Pigweed plant response rating: 90
[23]; [33]
  Plant response rating, Pigweed: 0
[23]; [34]
  Plant response rating, Pigweed: 20
[24]; [31]
  Velvetleaf plant response rating: 20
[24]; [32]
  Velvetleaf plant response rating: 20
[24]; [33]
  Plant response rating, Velvetleaf: 0
[24]; [34]
  Plant response rating, Velvetleaf: 0
[25]; [31]
  Wheat plant response rating: 10
[25]; [32]
  Wheat plant response rating: 10
[25]; [33]
  Plant response rating, Wheat: 0
[25]; [34]
  Plant response rating, Wheat: 0
[26]; [31]
  Corn plant response rating: 10
[26]; [32]
  Corn plant response rating: 20
[26]; [33]
  Plant response rating, Corn: 0
[26]; [34]
  Plant response rating, Corn: 0
[27]
  Plant response rating, Rice (0 to 100 scale, 0 is no effect, 100 is complete control): 0
[28]
  Plant response rating, Sedge, Umbrella (0 to 100 scale, 0 is no effect, 100 is complete control): 0
[29]
  Plant response rating, Ducksalad (0 to 100 scale, 0 is no effect, 100 is complete control): 0
[30]
  Plant response rating, Barnyardgrass (0 to 100 scale, 0 is no effect, 100 is complete control): 0
